Laboratory results from patent US11077090B2, “Compounds and compositions and uses thereof” (Sunovion Pharmaceuticals Inc., priority 2016, dated 2021).

Test system: compound-treated mice
Assay: Neuropharmacological assay (SmartCube): behavioral activity signature and minimal effective dose
Format: in vivo
Settings: for minimal effective dose: Mus musculus, ip, MED = dose having 50% or more total activity, read-out: Potency: minimal effective dose (MED), binned; for AD: ADHD (probability of activity signature) / AG: analgesic (probability of activity signature) / AX: anxiolytic (probability of activity signature) / CE: cognitive enhancer (probability of activity signature) / DP: anti-depressant (probability of activity signature) / MS: mood stabilizer (probability of activity signature) / PS: anti-psychotic (probability of activity signature) / SD: sedative hypnotic (probability of activity signature) / UN: uncharacterized CNS activity (probability of activity signature): i.p. 15 min before test, most efficacious dose(s)
Summary of the method: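 Mice dosed i.p. 15 min before test, compound in N-methyl-2-pyrrolidone/PEG/propylene glycol, 3 doses; video-captured behavior matched to reference-drug signatures, giving per-class probabilities at most efficacious dose. MED from doses typically 0.3–30 mpk, defined as lowest dose with ≥50% total activity.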

Compound | minimal effective dose | AD: ADHD (probability of activity signature) | AG: analgesic (probability of activity signature) | AX: anxiolytic (probability of activity signature) | CE: cognitive enhancer (probability of activity signature) | DP: anti-depressant (probability of activity signature) | MS: mood stabilizer (probability of activity signature) | PS: anti-psychotic (probability of activity signature) | SD: sedative hypnotic (probability of activity signature) | UN: uncharacterized CNS activity (probability of activity signature)
C[C@@H]1OCc2ccc3c(c2[C@@H]1N)CCCC3.Cl [Example 196] | 10 to 30 mg/kg | + (LOQ ≤ + <5%) | + (LOQ ≤ + <5%) | ++ (5% ≤ ++ <25%) | ++ (5% ≤ ++ <25%) | + (LOQ ≤ + <5%) | + (LOQ ≤ + <5%) | ++ (5% ≤ ++ <25%) | + (LOQ ≤ + <5%) | +++ (25% ≤ +++ <50%)
C[C@H]1OCc2ccc3c(c2[C@@H]1N)CCCC3.Cl [Example 197] | 3 to 10 mg/kg | + (LOQ ≤ + <5%) | + (LOQ ≤ + <5%) | ++ (5% ≤ ++ <25%) | + (LOQ ≤ + <5%) | + (LOQ ≤ + <5%) | + (LOQ ≤ + <5%) | + (LOQ ≤ + <5%) | + (LOQ ≤ + <5%) | ++++ (50% ≤ ++++)
Cc1ccc(Cl)c2c1[C@H](N)[C@@H](C)OC2.Cl [Example 200] | 3 to 10 mg/kg | + (LOQ ≤ + <5%) | ++ (5% ≤ ++ <25%) | +++ (25% ≤ +++ <50%) | ++ (5% ≤ ++ <25%) | ++ (5% ≤ ++ <25%) | + (LOQ ≤ + <5%) | ++ (5% ≤ ++ <25%) | + (LOQ ≤ + <5%) | ++++ (50% ≤ ++++)
CC[C@@H]1OCc2ccc(F)cc2[C@@H]1N.Cl [Example 201] | 3 to 10 mg/kg | + (LOQ ≤ + <5%) | + (LOQ ≤ + <5%) | ++ (5% ≤ ++ <25%) | ++ (5% ≤ ++ <25%) | + (LOQ ≤ + <5%) | + (LOQ ≤ + <5%) | ++ (5% ≤ ++ <25%) | + (LOQ ≤ + <5%) | ++++ (50% ≤ ++++)
CC[C@H]1OCc2ccc(F)cc2[C@@H]1N.Cl [Example 202] | < 3 mg/kg | + (LOQ ≤ + <5%) | ++ (5% ≤ ++ <25%) | +++ (25% ≤ +++ <50%) | ++ (5% ≤ ++ <25%) | ++ (5% ≤ ++ <25%) | + (LOQ ≤ + <5%) | ++ (5% ≤ ++ <25%) | + (LOQ ≤ + <5%) | ++++ (50% ≤ ++++)
C[C@H]1OC[C@@H](N)c2cc(Cl)ccc21.Cl [Example 203] | 3 to 10 mg/kg | + (LOQ ≤ + <5%) | ++ (5% ≤ ++ <25%) | ++ (5% ≤ ++ <25%) | ++ (5% ≤ ++ <25%) | ++ (5% ≤ ++ <25%) | + (LOQ ≤ + <5%) | +++ (25% ≤ +++ <50%) | ++ (5% ≤ ++ <25%) | ++++ (50% ≤ ++++)
C[C@@H]1OC[C@@H](N)c2cc(Cl)ccc21.Cl [Example 204] | 3 to 10 mg/kg | + (LOQ ≤ + <5%) | + (LOQ ≤ + <5%) | ++ (5% ≤ ++ <25%) | ++ (5% ≤ ++ <25%) | + (LOQ ≤ + <5%) | + (LOQ ≤ + <5%) | ++ (5% ≤ ++ <25%) | ++ (5% ≤ ++ <25%) | ++++ (50% ≤ ++++)
C[C@H]1OC[C@@H](N)c2cc(F)ccc21.Cl [Example 205] | 3 to 10 mg/kg | + (LOQ ≤ + <5%) | + (LOQ ≤ + <5%) | +++ (25% ≤ +++ <50%) | ++ (5% ≤ ++ <25%) | ++ (5% ≤ ++ <25%) | + (LOQ ≤ + <5%) | ++ (5% ≤ ++ <25%) | ++ (5% ≤ ++ <25%) | +++ (25% ≤ +++ <50%)
C[C@@H]1OC[C@@H](N)c2cc(F)ccc21.Cl [Example 206] | 3 to 10 mg/kg | + (LOQ ≤ + <5%) | ++ (5% ≤ ++ <25%) | ++++ (50% ≤ ++++) | ++ (5% ≤ ++ <25%) | ++ (5% ≤ ++ <25%) | + (LOQ ≤ + <5%) | ++ (5% ≤ ++ <25%) | + (LOQ ≤ + <5%) | +++ (25% ≤ +++ <50%)
CC[C@H]1OCc2cccc(C)c2[C@@H]1N.Cl [Example 207] | 3 to 10 mg/kg | + (LOQ ≤ + <5%) | ++ (5% ≤ ++ <25%) | ++ (5% ≤ ++ <25%) | ++ (5% ≤ ++ <25%) | ++ (5% ≤ ++ <25%) | + (LOQ ≤ + <5%) | ++ (5% ≤ ++ <25%) | + (LOQ ≤ + <5%) | ++++ (50% ≤ ++++)
CC[C@@H]1OCc2cccc(C)c2[C@@H]1N.Cl [Example 208] | 3 to 10 mg/kg | + (LOQ ≤ + <5%) | + (LOQ ≤ + <5%) | +++ (25% ≤ +++ <50%) | ++ (5% ≤ ++ <25%) | ++ (5% ≤ ++ <25%) | ++ (5% ≤ ++ <25%) | ++ (5% ≤ ++ <25%) | + (LOQ ≤ + <5%) | +++ (25% ≤ +++ <50%)
